Test results from PubChem BioAssay AID192 (DTP/NCI, 2004).
Where “and” joins values, the source holds several entries; their conditions need not be identical. Identical values can stand only once. Toxic doses and inconclusive results are not listed. How the source made its calls: active means survival T/C of 150% or more; inactive means T/C below 125% in these data.

System: BDF1 mice, B16 melanoma ip, median survival T/C
Assay: NCI In Vivo Anticancer Drug Screen. Data for tumor model B16 Melanoma (intraperitoneal) in B6D2F1 (BDF1) mice
Settings: endpoint: median survival time, higher = longer survival
Method in brief: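 Values are ratios of treated (T) to vehicle-control (C) measurements of survival or tumor size in tumor-bearing mice.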

[1] = dose: 100.0 mg/kg/injection, schedule: Q01DX009 (ip), vehicle: saline with Tween-80
[2] = dose: 200.0 mg/kg/injection, schedule: Q01DX009 (ip), vehicle: saline with Tween-80
[3] = dose: 400.0 mg/kg/injection, schedule: Q01DX009 (ip), vehicle: saline with Tween-80
[4] = dose: 6.25 mg/kg/injection, schedule: Q01DX009 (ip), vehicle: saline with Tween-80
[5] = dose: 12.5 mg/kg/injection, schedule: Q01DX009 (ip), vehicle: saline with Tween-80
[6] = dose: 25.0 mg/kg/injection, schedule: Q01DX009 (ip), vehicle: saline with Tween-80
[7] = dose: 100.0 mg/kg/injection, schedule: Q01DX009 (ip), vehicle: Klucel (hydroxypropylcellulose) (HPC)
[8] = dose: 200.0 mg/kg/injection, schedule: Q01DX009 (ip), vehicle: Klucel (hydroxypropylcellulose) (HPC)
[9] = dose: 400.0 mg/kg/injection, schedule: Q01DX009 (ip), vehicle: Klucel (hydroxypropylcellulose) (HPC)
[10] = dose: 50.0 mg/kg/injection, schedule: Q01DX009 (ip), vehicle: Klucel (hydroxypropylcellulose) (HPC)
[11] = dose: 12.5 mg/kg/injection, schedule: Q01DX009 (ip), vehicle: Klucel (hydroxypropylcellulose) (HPC)
[12] = dose: 6.25 mg/kg/injection, schedule: Q01DX009 (ip), vehicle: saline
[13] = dose: 12.5 mg/kg/injection, schedule: Q01DX009 (ip), vehicle: saline
[14] = dose: 25.0 mg/kg/injection, schedule: Q01DX009 (ip), vehicle: saline
[15] = dose: 50.0 mg/kg/injection, schedule: Q01DX009 (ip), vehicle: saline with Tween-80
[16] = dose: 25.0 mg/kg/injection, schedule: Q01DX009 (ip), vehicle: Klucel (hydroxypropylcellulose) (HPC)

Measured: T/C

NC1c2cc(Cl)ccc2-c2c(Cl)cc(Cl)cc21 (stereo not given)
inactive: [1] 109 % of control | [2] 111 % of control | [3] 102 % of control

Nc1nc(SCc2ccccc2F)c2ncn(C3OC(CO)C(O)C3O)c2n1 (stereo not given)
inactive: dose: 3.12 mg/kg/injection, schedule: Q01DX009 (ip), vehicle: saline with Tween-80 105 % of control | [4] 116 % of control | [5] 122 % of control | [6] 95 % of control

O=C(NO)N/N=C/c1ccccc1
inactive: dose: 100.0 mg/kg/injection, schedule: Q04DX003 (ip), vehicle: saline with Tween-80 106 % of control | dose: 200.0 mg/kg/injection, schedule: Q04DX003 (ip), vehicle: saline with Tween-80 104 % of control | dose: 400.0 mg/kg/injection, schedule: Q04DX003 (ip), vehicle: saline with Tween-80 90 % of control

CN(C)N=Nc1c(Cl)cc(Cl)cc1C(N)=O
inactive: [1] 119 % of control | [2] 115 % of control

Nc1ccccc1S(=O)(=O)Nc1ccccc1
inactive: [7] 96 % of control | [8] 107 % of control | [9] 110 % of control

O=C1c2ccccc2CC12OC2c1ccccc1 (stereo not given)
inactive: [10] 94 % of control | [7] 90 % of control | [8] 103 % of control | [9] 96 % of control

NC(=O)c1ccccc1NC(=O)Nc1ccccc1
inactive: [7] 89 % of control | [8] 91 % of control | [9] 89 % of control

O=[N+]([O-])c1ccc(C2OC2c2ccccc2)cc1 (stereo not given)
inactive: dose: 9.38 mg/kg/injection, schedule: Q01DX009 (ip), vehicle: saline with Tween-80 100 % of control | [11] 103 % of control | dose: 18.7 mg/kg/injection, schedule: Q01DX009 (ip), vehicle: saline with Tween-80 105 % of control | dose: 37.5 mg/kg/injection, schedule: Q01DX009 (ip), vehicle: saline with Tween-80 97 % of control | [10] 100 % of control | dose: 75.0 mg/kg/injection, schedule: Q01DX009 (ip), vehicle: saline with Tween-80 102 % of control | dose: 150.0 mg/kg/injection, schedule: Q01DX009 (ip), vehicle: saline with Tween-80 97 % of control

CCC(C)OC(N)=O (stereo not given)
inactive: dose: 100.0 mg/kg/injection, schedule: Q01DX009 (ip), vehicle: saline 123 % of control

CCNCCCN
inactive: [12] 102 % of control | [13] 102 % of control | [14] 94 % of control

CCCN(CCC)CCCCCCO
inactive: [15] 102 % of control | [1] 102 % of control | [2] 99 % of control

NC(=O)C(Br)CBr (stereo not given)
inactive: [16] 92 % of control | [6] 111 % of control | [10] 105 % of control | [15] 108 % of control | [7] 107 % of control | [1] 106 % of control

Clc1ccc2c(Cl)ncnc2c1
inactive: [11] 100 % of control | [16] 100 % of control | [10] 102 % of control | [7] 100 % of control | [8] 90 % of control

Cc1ccc([N+](=O)[O-])cc1NC(=O)COc1ccc(Cl)cc1Cl
inactive: dose: 75.0 mg/kg/injection, schedule: Q01DX009 (ip), vehicle: Klucel (hydroxypropylcellulose) (HPC) 90 % of control | dose: 150.0 mg/kg/injection, schedule: Q01DX009 (ip), vehicle: Klucel (hydroxypropylcellulose) (HPC) 88 % of control | dose: 300.0 mg/kg/injection, schedule: Q01DX009 (ip), vehicle: Klucel (hydroxypropylcellulose) (HPC) 86 % of control

CN(C)C(C#N)C(=O)c1ccccc1 (stereo not given)
inactive: [16] 104 % of control | [10] 97 % of control | [7] 97 % of control

Nc1nc(O)c(CC(=O)O)s1
inactive: [11] 88 % of control | [16] 91 % of control | [10] 95 % of control

CCCCCCCCSSCCCCCCCC
inactive: [1] 108 % of control | [2] 101 % of control | [3] 98 % of control

O=C(c1cccc(C(=O)n2c3c(c4ccccc42)CCCC3)c1)n1c2c(c3ccccc31)CCCC2
inactive: [4] 94 % of control | [5] 102 % of control | [6] 100 % of control

CCO/C=C1\SC(=S)N(c2ccccc2C)C1=O
inactive: [6] 92 % of control | [15] 90 % of control | [1] 91 % of control

O=C(/C(=C/c1ccccc1)CBr)c1ccccc1
inactive: dose: 0.13 mg/kg/injection, schedule: Q01DX009 (ip), vehicle: saline with Tween-80 89 % of control | dose: 0.25 mg/kg/injection, schedule: Q01DX009 (ip), vehicle: saline with Tween-80 100 % of control | dose: 0.5 mg/kg/injection, schedule: Q01DX009 (ip), vehicle: saline with Tween-80 86 % of control and 100 % of control | dose: 1.0 mg/kg/injection, schedule: Q01DX009 (ip), vehicle: saline with Tween-80 89 % of control and 92 % of control | dose: 2.0 mg/kg/injection, schedule: Q01DX009 (ip), vehicle: saline with Tween-80 89 % of control | dose: 4.0 mg/kg/injection, schedule: Q01DX009 (ip), vehicle: saline with Tween-80 89 % of control

O=C(COc1cc(Cl)c(Cl)cc1Cl)OCCOc1cc(Cl)c(Cl)cc1Cl
inactive: dose: 12.0 mg/kg/injection, schedule: Q01DX009 (ip), vehicle: Klucel (hydroxypropylcellulose) (HPC) 98 % of control | dose: 24.0 mg/kg/injection, schedule: Q01DX009 (ip), vehicle: Klucel (hydroxypropylcellulose) (HPC) 98 % of control | dose: 48.0 mg/kg/injection, schedule: Q01DX009 (ip), vehicle: Klucel (hydroxypropylcellulose) (HPC) 91 % of control | dose: 96.0 mg/kg/injection, schedule: Q01DX009 (ip), vehicle: Klucel (hydroxypropylcellulose) (HPC) 93 % of control

Cc1ccc(NC(=O)c2ccccc2Cl)cc1
inactive: [1] 105 % of control | [2] 97 % of control

COc1cc2cc[n+]3c(C)c4cc5c(cc4cc3c2cc1OC)OCO5 (tested in a mixture with another compound)
inactive: [12] 94 % of control | [13] 105 % of control

CC[C@@H](C)[C@@H]1NC(=O)C(NC(=O)C(CC(C)C)N(C)C(=O)C2CCCN2C(=O)C(C)O)C(C)OC(=O)C(Cc2ccc(OC)cc2)N(C)C(=O)C2CCCN2C(=O)C(CC(C)C)NC(=O)C(C)C(=O)C(C(C)C)OC(=O)C[C@H]1O (stereo not given in full)
active: dose: 80.0 micrograms/kg/injection, schedule: Q01DX009 (ip), vehicle: clinical formulation 161 % of control | dose: 160.0 micrograms/kg/injection, schedule: Q01DX009 (ip), vehicle: clinical formulation 160 % of control | dose: 160.0 micrograms/kg/injection, schedule: Q01DX009 (ip), vehicle: distilled water + alcohol 160 % of control | dose: 320.0 micrograms/kg/injection, schedule: Q01DX009 (ip), vehicle: clinical formulation 153 % of control | dose: 320.0 micrograms/kg/injection, schedule: Q01DX009 (ip), vehicle: distilled water + alcohol 172 % of control

CNC(=O)Nc1cccc2c(=O)[nH][nH]c(=O)c12
inactive: dose: 100.0 mg/kg/injection, schedule: Q04DX003 (ip), vehicle: Klucel (hydroxypropylcellulose) (HPC) 112 % of control | dose: 200.0 mg/kg/injection, schedule: Q04DX003 (ip), vehicle: Klucel (hydroxypropylcellulose) (HPC) 102 % of control | dose: 400.0 mg/kg/injection, schedule: Q04DX003 (ip), vehicle: Klucel (hydroxypropylcellulose) (HPC) 91 % of control

CC1(C)CC(C)(c2ccc(O)cc2)c2ccccc2O1 (stereo not given)
inactive: [1] 100 % of control | [2] 86 % of control | [3] 86 % of control

COC(=O)c1nc(-c2ccc3c(n2)C(=O)C(N)=C(OC)C3=O)c(N)c(-c2ccc(OC)c(OC)c2O)c1C
inactive: dose: 0.1 mg/kg/injection, schedule: Q01DX009 (ip), vehicle: saline with Tween-80 95 % of control | dose: 0.2 mg/kg/injection, schedule: Q01DX009 (ip), vehicle: saline with Tween-80 97 % of control | dose: 0.4 mg/kg/injection, schedule: Q01DX009 (ip), vehicle: saline with Tween-80 105 % of control | dose: 0.8 mg/kg/injection, schedule: Q01DX009 (ip), vehicle: saline with Tween-80 104 % of control

Cc1cc(C)c(COCc2cc(C)c(C)cc2C)cc1C
inactive: dose: 50.0 mg/kg/injection, schedule: Q01DX009 (ip), vehicle: water 95 % of control | dose: 100.0 mg/kg/injection, schedule: Q01DX009 (ip), vehicle: water 95 % of control

Cc1cn(C2CC3[O][Sn]([c]4ccccc4)([c]4ccccc4)[O]CC3O2)c(=O)[nH]c1=O (stereo not given)
inactive: [12] 91 % of control | [13] 93 % of control and 117 % of control | [14] 94 % of control and 124 % of control | dose: 50.0 mg/kg/injection, schedule: Q01DX009 (ip), vehicle: saline 98 % of control

NC(=O)C=C1c2ccccc2-c2ccccc21
inactive: [16] 100 % of control | [10] 100 % of control | [7] 94 % of control | [8] 88 % of control | [9] 86 % of control

CCCCCC[C@H]([C@H](C)O)n1cnc2c(N)ncnc21
inactive: dose: 6.25 mg/kg/injection, schedule: Q01DX009 (ip), vehicle: Klucel (hydroxypropylcellulose) (HPC) 93 % of control | [11] 86 % of control | [16] 93 % of control and 94 % of control | [10] 93 % of control and 106 % of control | [7] 104 % of control
